Source: PubChem BioAssay (NCI)
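Five compound concentrations were applied to cells in 96-well plates for 48 hours; endpoints were derived by simple linear interpolation of the resulting dose-response curve. At the TGI there is no net growth.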

What was measured:
Experiment in all cases: growth of human tumour cells (NCI), 48 h
SNB-19 CNS = test system: SNB-19 CNS
HT29 colon = test system: HT29 colon
NCI-H460 lung = test system: NCI-H460 lung
A549 NSCLC = test system: A549 NSCLC
MALME-3M melanoma = test system: MALME-3M melanoma
SF-539 CNS = test system: SF-539 CNS
U251 CNS = test system: U251 CNS
M14 melanoma = test system: M14 melanoma
LOX IMVI melanoma = test system: LOX IMVI melanoma
SW-620 colon = test system: SW-620 colon
SK-MEL-2 melanoma = test system: SK-MEL-2 melanoma
KM12 colon = test system: KM12 colon
SK-OV-3 ovarian = test system: SK-OV-3 ovarian
NCI-H23 lung = test system: NCI-H23 lung
K-562 leukemia = test system: K-562 leukemia
SK-MEL-5 melanoma = test system: SK-MEL-5 melanoma
MOLT-4 leukemia = test system: MOLT-4 leukemia
MCF7 breast = test system: MCF7 breast
BT-549 breast = test system: BT-549 breast

| Compound | TGI (SNB-19 CNS) [µM] | TGI (HT29 colon) [µM] | TGI (NCI-H460 lung) [µM] | TGI (A549 NSCLC) [µM] | TGI (MALME-3M melanoma) [µM] | TGI (SF-539 CNS) [µM] | TGI (U251 CNS) [µM] | TGI (M14 melanoma) [µM] | TGI (LOX IMVI melanoma) [µM] | TGI (SW-620 colon) [µM] | TGI (SK-MEL-2 melanoma) [µM] | TGI (KM12 colon) [µM] | TGI (SK-OV-3 ovarian) [µM] | TGI (NCI-H23 lung) [µM] | TGI (K-562 leukemia) [µM] | TGI (SK-MEL-5 melanoma) [µM] | TGI (MOLT-4 leukemia) [µM] | TGI (MCF7 breast) [µM] | TGI (BT-549 breast) [µM] |
| --- | --- | --- | --- | --- | --- | --- | --- | --- | --- | --- | --- | --- | --- | --- | --- | --- | --- | --- | --- |
| COc1cc2c(cc1OC)C(Cc1cc(Br)c(OC)c(OC)c1)=[N+](C)CC2 | > 100 | > 100 | > 100 | > 100 | > 100 | > 100 | > 100 | > 100 | > 100 | > 100 | > 100 | > 100 | > 100 | > 100 | > 100 | > 100 | – | – | – |
| CN(C)CCSC(=Nc1ccccc1)n1cccc1 | > 100 | > 100 | > 100 | > 100 | > 100 | > 100 | > 100 | > 100 | > 100 | > 100 | > 100 | > 100 | > 100 | > 100 | > 100 | > 100 | > 100 | – | – |
| COc1ccc([C@H]2[C@@H]3CCc4ccccc4C3=NN2C(N)=S)cc1OC | > 100 | > 100 | > 100 | > 100 | > 100 | > 100 | > 100 | > 100 | > 100 | > 100 | > 100 | > 100 | > 100 | > 100 | 66.9 | – | > 100 | – | – |
| Cc1ccc([N+](=O)[O-])cc1NC(=O)/C(CC(=O)c1sc(C(N)=S)nc1C)=N\N | > 100 | > 100 | > 100 | > 100 | > 100 | > 100 | > 100 | > 100 | > 100 | > 100 | > 100 | > 100 | > 100 | 83.8 | > 100 | > 100 | > 100 | – | – |
| CN1CCN(c2ccc3nc(-c4ccc5nc(CCCc6ccc(N(CCCl)CCCl)cc6)[nH]c5c4)[nH]c3c2)CC1 | > 100 | > 100 | > 100 | > 100 | > 100 | > 100 | > 100 | > 100 | > 100 | > 100 | > 100 | > 100 | > 100 | > 100 | > 100 | > 100 | > 100 | > 100 | – |
| CC(=O)OCc1ncccc1C(OC(C)=O)OC(C)=O | > 100 | > 100 | > 100 | > 100 | > 100 | > 100 | > 100 | > 100 | > 100 | > 100 | > 100 | > 100 | > 100 | > 100 | > 100 | > 100 | > 100 | – | – |
| C[C@@H]1C[C@@H]2C(=O)N(c3ccccc3)C(=O)[C@@H]2c2[nH]c3ccc(Br)cc3c21 | > 100 | – | > 100 | 90.1 | > 100 | > 100 | 38.8 | > 100 | > 100 | > 100 | > 100 | 75.4 | 44.5 | > 100 | > 100 | > 100 | > 100 | – | – |
| CCOc1cc2cnc3c4cc(OC)c(OC)cc4ccc3c2cc1OC | > 100 | > 100 | > 100 | > 100 | > 100 | > 100 | > 100 | > 100 | > 100 | > 100 | > 100 | > 100 | > 100 | > 100 | > 100 | > 100 | > 100 | – | – |
| CCOC(=O)/C(=C/c1ccccc1)N(CC)CC | > 100 | > 100 | > 100 | > 100 | > 100 | > 100 | > 100 | > 100 | > 100 | > 100 | > 100 | > 100 | > 100 | > 100 | > 100 | > 100 | > 100 | – | – |
| Cc1ccc(C2SCc3nc4ccccc4n32)cc1 (centres undefined) | > 100 | 79 | > 100 | > 100 | 73.6 | 5.47 | > 100 | > 100 | 40.6 | > 100 | 5.56 | 20.6 | 85.8 | 24.3 | 14.8 | 5.28 | 15.3 | 20.3 | – |
| COc1ccc(C2S/C(=C\c3ccc([N+](=O)[O-])cc3)C(=O)N2NC(=O)Cc2ccccc2)cc1 (centres undefined) | – | > 100 | > 100 | > 100 | > 100 | > 100 | > 100 | > 100 | > 100 | > 100 | > 100 | > 100 | > 100 | > 100 | > 100 | > 100 | > 100 | – | – |
| CC(=O)NC(CCCCN(Cc1ccccc1)C(=O)N(C)N=O)C(=O)NCc1ccccc1 (centres undefined) | > 100 | > 100 | > 100 | > 100 | > 100 | > 100 | > 100 | > 100 | > 100 | > 100 | > 100 | > 100 | > 100 | > 100 | > 100 | > 100 | > 100 | – | – |
| CCC1=NC(N/N=C/c2ccco2)=N/C1=C\c1ccco1 | > 100 | > 100 | > 100 | > 100 | > 100 | – | > 100 | > 100 | > 100 | > 100 | > 100 | > 100 | > 100 | > 100 | > 100 | > 100 | > 100 | – | > 100 |
